Laboratory results from patent US12239711B2, “Cereblon ligands and bifunctional compounds comprising the same” (Arvinas Operations, Inc., priority 2014, dated 2025).

Key:
[1] = target: T1, Estrogen Receptor-Alpha (ERα) (Homo sapiens, UniProt P03372); test: Estrogen Receptor-Alpha (ERα) degradation assay in MCF-7 cells (western blot / In-Cell Western); assay type: cell-based; details: for Dmax: MCF7, read-out: ER Dmax; for DC50: read-out: ER DC50
T1 construct: endogenous in cells; host or cells: MCF-7 (MCF7) cells
T1 sequence (P03372 1-595): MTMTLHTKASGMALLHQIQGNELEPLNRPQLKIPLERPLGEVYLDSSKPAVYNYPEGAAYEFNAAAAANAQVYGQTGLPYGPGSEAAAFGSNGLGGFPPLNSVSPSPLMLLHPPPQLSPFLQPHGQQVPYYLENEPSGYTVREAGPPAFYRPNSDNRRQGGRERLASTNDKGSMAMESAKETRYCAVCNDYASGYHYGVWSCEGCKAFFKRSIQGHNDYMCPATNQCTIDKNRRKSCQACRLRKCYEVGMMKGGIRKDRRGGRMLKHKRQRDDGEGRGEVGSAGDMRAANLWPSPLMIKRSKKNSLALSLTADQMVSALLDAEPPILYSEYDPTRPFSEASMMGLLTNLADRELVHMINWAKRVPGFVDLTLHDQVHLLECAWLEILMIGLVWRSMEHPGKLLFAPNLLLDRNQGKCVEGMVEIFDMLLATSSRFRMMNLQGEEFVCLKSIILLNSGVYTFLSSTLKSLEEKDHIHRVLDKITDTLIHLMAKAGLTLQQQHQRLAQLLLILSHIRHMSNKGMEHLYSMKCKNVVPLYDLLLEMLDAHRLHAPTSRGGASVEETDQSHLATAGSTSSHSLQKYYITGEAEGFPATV
Method: 2. Estrogen Receptor-Alpha (ERα) Degradation Assay in MCF-7 Cells Using Western Blot Method for Table 5.
The exemplary novel ERα degraders were assessed for their activity in degrading ERα in MCF-7 cells via western blot. The assay was carried out in the presence of 10% FBS or high percentage of human or mouse serum. Protocols of the western blot assay are described below.
MCF7 cells were grown in DMEM/F12 with 10% FBS and seeded at 24,000 cells per well in 100 μl into 96-well clear tissue culture plates. The following day, the cells were treated with PROTACs in a […] concentration curve with 100 nM being the top concentration and serial dilutions to make the other concentrations (30 nM, 10 nM, 3 nM, 1 nM, and 0.3 nM). At all concentrations, 0.01% DMSO is the final concentration in the well. The following day, the plates are aspirated, washed with 50 μl of cold PBS. The cells are lysed with 50 μl/well 4° C. Cell Lysis Buffer (Catalog #9803; Cell Signaling Technology, Danvers, MA) (20 mM Tris-HCL (pH 7.5), 150 mM NaCl, 1 mM Na2EDTA, 1 mM EGTA, 1% Triton, 2.5 mM sodium pyrophosphate, 1 mM B-glycerophosphate, 1 mM sodium vanadate, 1 ug/ml leupeptin). Lysates were clarified at 16,000×g for 10 minutes, and 2 μg of protein was subjected to SDS-PAGE analysis and followed by immunoblotting according to standard protocols. The antibodies used were ERα (Cell Signaling Technologies Catalog #8644), and Tubulin (Sigma Catalog #T9026; St. Louis, MO). Detection reagents were Clarity Western ECL substrate (Bio-Rad Catalog #170-5060; Hercules, CA).
Alternatively, MCF7 cells were grown in DMEM/F12 with 10% FBS and seeded at 24,000 cells per well in 500 μl in 24-well clear tissue culture plates. The following day, the cells were treated with PROTACs in a 5-point concentration curve (100 nM, 33 nM, 11 nM, 3.7 nM, and 1.2 nM) in the presence of 0.01% DMSO. After 72 hours, the wells are aspirated and washed with 500 μl of PBS. The cells are lysed with 100 μl/well 4° C. Cell Lysis Buffer (Catalog #9803; Cell Signaling Technology, Danvers, MA) (20 mM Tris-HCL (pH 7.5), 150 mM NaCl, 1 mM Na2EDTA, 1 mM EGTA, 1% Triton, 2.5 mM sodium pyrophosphate, 1 mM B-glycerophosphate, 1 mM sodium vanadate, 1 ug/ml leupeptin). Lysates were clarified at 16,000×g for 10 minutes, and 2 μg of protein was subjected to SDS-PAGE analysis and followed by immunoblotting according to standard protocols. The antibodies used were ERα (Cell Signaling Technologies Catalog #8644), and Tubulin (Sigma Catalog #T9026; St. Louis, MO). Detection reagents were Clarity Western ECL substrate (Bio-Rad Catalog #170-5060; Hercules, CA).
3. Estrogen Receptor-Alpha (ERα) Degradation Assay Using In-Cell Western™ Assay for Table 5.
Degradation of ERα by claimed compounds were determined in MCF7 cells using an In-Cell Western™ assay. Briefly, MCF7 cells were plated in 96-well plates (2000 cells per well in 100 μl media) and incubated at 37° C. under an atmosphere of 5% CO2 in a humidified incubator overnight. One-hundred (100) μl of media containing test compound (at 2× concentration) was added to the appropriate wells to provide 11 serially decreasing concentrations (top final concentration, 1 μM then 3-fold less for the next 10 concentrations); a vehicle control (DMSO) was also added for each compound. For each experiment, all compounds were assayed in duplicate plates. Cells were then incubated for 3 or 5 days in the above-mentioned environment. The assay was terminated by removal of media, a single wash with ice-cold PBS and the addition of 50 μl paraformaldehyde (PFA: 4% in PBS). After 15 minutes in PFA at room temperature, the cells were permeabilized in Tris-phosphate-buffered saline with Tween (0.1%) (TBST) supplemented with Triton X-100 (0.5%) for 15 minutes. Cells were then blocked in BSA (TBST with BSA, 3%) for one hour. […]

[2] = system: estrogen responsive element/promoter/luciferase reporter gene; test: ERE Luciferase Assay in T47D-KBluc cells; assay type: cell-based, human; details: Homo sapiens, 24 hours, luciferase activity, read-out: Target Engagement IC50
Method: 1. ERE Luciferase Assay for Compounds in Table 5.
T47D-KBluc cells (ATCC® #CRL_2865, T47D human breast cancer cells stably transfected with estrogen responsive element/promoter/luciferase reporter gene) were seeded into 96-well white opaque plates in RPMI growth medium supplemented with 10% fetal bovine serum (FBS) and allowed to adhere overnight in a 37° C. humidified incubator. The following day, cells were treated with PROTACs in a 12-point concentration curve (top final concentration of 300 nM with subsequent concentrations being 3-fold less with 2 pM being the lowest concentration in the assay). Each PROTAC was tested independently in two experiments on 96-well plates. After 24 hours, media was removed and lysis buffer was added to the wells. Following lysis, Bright-Glo™ Luciferase Assay Substrate (Promega, Madison WI) was added and the luciferase activity was measured using a Cytation 3 plate reader (BioTek™, Winooski, VT). Each compound was assayed in duplicate and the activity was calculated as IC50 using GraphPad Prism software (San Diego, CA).

Row | Compound | Dmax [1] [%] | DC50 [1] [nM] | IC50 [2] [nM]
1 | COc1cc(N2CCN(CCCCCOc3ccc([C@@H]4c5ccc(O)cc5CC[C@@H]4c4ccccc4)cc3)CC2)cc2c1C(=O)N([C@H]1CCC(=O)NC1=O)C2 [compound 14, (3S)-3-[5-[4-[5-[4-[(1R,2S)-6-hydroxy-2-phenyl-tetralin-1-yl]phenoxy]pentyl]piperazin-1-yl]-7-methoxy-1-oxo-isoindolin-2-yl]piperidine-2,6-dione] | ≥ 75 | < 1 | 0.49
2 | O=C1CCC(N2Cc3cc(N4CCN(CCC5(O)CC(Oc6ccc([C@@H]7c8ccc(O)cc8CC[C@@H]7c7ccccc7)cc6)C5)CC4)cc(OC(F)F)c3C2=O)C(=O)N1 (stereo partly drawn) [compound 27, 3-[7-(difluoromethoxy)-5-[4-[2-[1-hydroxy-3-[4-[(1R,2S)-6-hydroxy-2-phenyl-tetralin-1-yl]phenoxy]cyclobutyl]ethyl]piperazin-1-yl]-1-oxo-isoindolin-2-yl]piperidine-2,6-dione] | 50 to 75 | < 1 | 0.5
3 | COc1cc(N2CCN(CCCCCOc3ccc([C@@H]4c5ccc(O)cc5CC[C@@H]4c4ccccc4)cc3)CC2)cc2c1C(=O)N([C@@H]1CCC(=O)NC1=O)C2 [compound 13, (3R)-3-[5-[4-[5-[4-[(1R,2S)-6-hydroxy-2-phenyl-tetralin-1-yl]phenoxy]pentyl]piperazin-1-yl]-7-methoxy-1-oxo-isoindolin-2-yl]piperidine-2,6-dione] | ≥ 75 | < 1 | 0.37
4 | COc1cc(N2CCN(CC3CCN(c4ccc([C@@H]5c6ccc(O)cc6CC[C@@H]5c5ccccc5)cc4)CC3)CC2)cc2c1C(=O)N(C1CCC(=O)NC1=O)C2 (stereo partly drawn) [compound 15, 3-[5-[4-[[1-[4-[(1R,2S)-6-hydroxy-2-phenyl-tetralin-1-yl]phenyl]-4-piperidyl]methyl]piperazin-1-yl]-7-methoxy-1-oxo-isoindolin-2-yl]piperidine-2,6-dione] | ≥ 75 | < 1 | 1.7
5 | COc1cc(N2CCN(CCC3CCN(c4ccc([C@@H]5c6ccc(O)cc6CC[C@@H]5c5ccccc5)cc4)CC3)CC2)cc2c1C(=O)N(C1CCC(=O)NC1=O)C2 (stereo partly drawn) [compound 10, 3-[5-[4-[2-[1-[4-[(1R,2S)-6-hydroxy-2-phenyl-tetralin-1-yl]phenyl]-4-piperidyl]ethyl]piperazin-1-yl]-7-methoxy-1-oxo-isoindolin-2-yl]piperidine-2,6-dione] | ≥ 75 | 1 to 10 | 0.86

Next, values leading:

Row | Dmax [1] [%] | DC50 [1] [nM] | IC50 [2] [nM] | Compound
6 | 50 to 75 | ≥ 100 | > 300 | COc1cc(N2CCN(CCC3CCN(c4ccc([C@H]5c6ccc(O)cc6CC[C@H]5c5ccccc5)cc4)CC3)CC2)cc2c1C(=O)N(C1CCC(=O)NC1=O)C2 (stereo partly drawn) [compound 9, 3-(5-{4-[2-(1-{4-[(1S,2R)-6-hydroxy-2-phenyl-1,2,3,4-tetrahydronaphthalen-1-yl]phenyl}piperidin-4-yl)ethyl]piperazin-1-yl}-7-methoxy-1-oxo-2,3-dihydro-1H-isoindol-2-yl)piperidine-2,6-dione]
7 | 50 to 75 | 1 to 10 | 2.5 | O=C1CCC(N2Cc3cc(N4CCN(CCCC(F)(F)COc5ccc([C@@H]6c7ccc(O)cc7CC[C@@H]6c6ccccc6)cc5)CC4)cc(OC(F)F)c3C2=O)C(=O)N1 (stereo partly drawn) [compound 21, 3-[5-[4-[4,4-difluoro-5-[4-[(1R,2S)-6-hydroxy-2-phenyl-tetralin-1-yl]phenoxy]pentyl]piperazin-1-yl]-7-(difluoromethoxy)-1-oxo-isoindolin-2-yl]piperidine-2,6-dione]
8 | ≥ 75 | < 1 | 1.35 | COc1c(N2CCN(CCCCCOc3ccc([C@@H]4c5ccc(O)cc5CC[C@@H]4c4ccccc4)cc3)CC2)ccc2c1CN(C1CCC(=O)NC1=O)C2=O (stereo partly drawn) [compound 3, 3-[5-[4-[5-[4-[(1R,2S)-6-hydroxy-2-phenyl-tetralin-1-yl]phenoxy]pentyl]piperazin-1-yl]-4-methoxy-1-oxo-isoindolin-2-yl]piperidine-2,6-dione]
